According to patent publication US9096556B2, “Amorphous ritonavir co-precipitated” (HETERO RESEARCH FOUNDATION, priority 2011, dated 2015):

Experiment: Solid-state stability of the amorphous form
Type: physicochemical

SMILES: CC(C)c1nc(CN(C)C(=O)N[C@H](C(=O)N[C@@H](Cc2ccccc2)C[C@H](O)[C@H](Cc2ccccc2)NC(=O)OCc2cncs2)C(C)C)cs1 [(5S,8S,10S,11S)-10-Hydroxy-2-methyl-5-(1-methylethyl)-1-[2-(1-methylethyl)-4-thiazolyl]-3,6-dioxo-8,11-bis(phenylmethyl)-2,4,7,12-tetraazatridecan-13-oic acid 5-thiazolylmethyl ester]
- stability of the amorphous form: unstable
- time until the amorphous material changed into molten state: ≤ 30 min
